Source: patent publication US20020115642A1, “Beta-lactam antibiotics” (priority 2000, published 2002)
In brackets after ≈: the same amount, converted by molar mass. Like-named read-outs stand apart in the source and are kept apart here.

Key:
Assay in all cases: Susceptibility testing (MIC, modified NCCLS method)
E. faecalis = format: cell-based, Enterococcus faecalis
Description: (§1) The NCCLS (National Committee for Clinical Laboratory Standards) method to determine MIC's of antimicrobial compounds was modified for high-throughput screening. All stocks of tested compounds were prepared in either water or in dimethylsulfoxide (DMSO), depending on the solubility. […] Briefly 20 2-fold serial dilutions of testing compounds from the highest concentration were made in a 384-well microtiter plate. Each well was inoculated with testing bacteria in broth to a final concentration of approximately 1-1.5×10^6 cells/ml. Bacterial growth was determined by the increase of optical density at 600 nm using a microplate reader (Tecan SpectraFluor Plus).

E. cloacae = format: cell-based, Enterobacter cloacae
Description: as §1

E. aerogenes = format: cell-based, Enterobacter aerogenes
Description: as §1

Staphylococcus aureus = format: cell-based
Description: as §1

P. aeruginosa = format: cell-based, Pseudomonas aeruginosa
Description: as §1

K. pneumoniae = format: cell-based, Klebsiella pneumoniae
Description: as §1

E. coli N = format: cell-based, Escherichia coli; settings: E. coli (N)
Description: as §1

E. coli/TEM-1 = format: cell-based, Escherichia coli
Description: as §1

[1] = Escherichia coli, read-out: MIC
[2] = Staphylococcus aureus, ATCC700260, S. aureus ATCC 700260, read-out: MIC
[3] = Staphylococcus aureus, ATCC700699, S. aureus ATCC 700699, read-out: MIC
[4] = Pseudomonas aeruginosa, ATCC21726, P. aeruginosa ATCC 21726, read-out: MIC
[5] = Klebsiella pneumoniae, ATCC700721, K. pneumoniae ATCC 700721, read-out: MIC

Row | Structure (SMILES) | MIC (E. faecalis; E. faecalis ATCC 49757) [µg/mL] | MIC (E. faecalis; E. faecalis ATCC 700802) [µg/mL] | MIC (E. cloacae; E. cloacae ATCC 23355) [µg/mL] | MIC (E. aerogenes; E. aerogenes ATCC 35028) [µg/mL] | MIC (Staphylococcus aureus; S. aureus ATCC 11632) [ng/mL] | MIC (Staphylococcus aureus; S. aureus ATCC 33594) [ng/mL] | MIC (Staphylococcus aureus; S. aureus ATCC 700260) [ng/mL] | MIC (Staphylococcus aureus; S. aureus ATCC 700699) [ng/mL] | MIC (P. aeruginosa; P. aeruginosa ATCC 21726) [µg/mL] | MIC (P. aeruginosa; P. aeruginosa ATCC 29872) [µg/mL] | MIC (K. pneumoniae; K. pneumoniae ATCC 51503) [µg/mL] | MIC (K. pneumoniae; K. pneumoniae ATCC 700721) [µg/mL] | MIC (E. coli N) [µg/mL] | MIC (E. coli/TEM-1; E. coli/Tem-1) [µg/mL] | further results
1 | CON=C(C(=O)NC1C(=O)N2C(C(=O)O)=C(COc3cc(Cl)ccc3Oc3ccc(Cl)cc3Cl)CSC12)c1csc(N)n1 (centres unmarked) [Compound 44] | 32 (≈ 46.7 µM) | 32 (≈ 46.7 µM) | 4 (≈ 5.84 µM) | >32 | 500 (≈ 0.73 µM) | 63 (≈ 0.092 µM) | 63 (≈ 0.092 µM) | >32000 | >32 | >32 | 8 (≈ 11.7 µM) | 8 (≈ 11.7 µM) |  |  | 
2 | O=C(Cc1cnc[nH]1)NC1C(=O)N2C(C(=O)O)=C(COc3cc(Cl)ccc3Oc3ccc(Cl)cc3Cl)CS[C@H]12 (some centres unmarked) [Compound 31, 3-(2-(2,4-Dichlorophenoxy)-5-chlorophenoxy)methyl-7-[2-(3H-imidazol-4-yl)]-acetamido-3-cephem-4-carboxylic acid] | 32 (≈ 52.5 µM) | >32 | 16 (≈ 26.2 µM) | 16 (≈ 26.2 µM) | 16000 (≈ 26.2 µM) | 63 (≈ 0.103 µM) | 32000 (≈ 52.5 µM) | 32000 (≈ 52.5 µM) | >32 | >32 | 32 (≈ 52.5 µM) | 0.5 (≈ 0.82 µM) | 0.25 (≈ 0.41 µM) | 0.063 (≈ 0.103 µM) | MIC (Staphylococcus aureus; S. aureus ATCC 33591): 16000 ng/mL (≈ 26.2 µM)
3 | O=C(Cc1cccs1)NC1C(=O)N2C(C(=O)O)=C(COC(=O)Oc3cc(Cl)ccc3Oc3ccc(Cl)cc3Cl)C[S+]([O-])[C@H]12 (some centres unmarked) [Compound 17, 3-((2-(2,4-Dichlorophenoxy)-5-chlorophenoxy)carbonyloxy)methyl-7-(2-thienylacetamido)-1-oxo-3-cephem-4-carboxylic acid] |  |  |  |  |  |  |  |  |  |  |  |  |  |  | MIC (E. coli N; [1]): 0.016 µg/mL (≈ 0.0233 µM); MIC (E. coli/TEM-1; Escherichia coli): 0.032 µg/mL (≈ 0.0467 µM); MIC (Staphylococcus aureus; [2]): 0.063 ng/mL (≈ 9.18e-05 µM); MIC (Staphylococcus aureus; [3]): 0.25 ng/mL (≈ 0.000364 µM); MIC (P. aeruginosa; [4]): > 16.5 µg/mL; MIC (K. pneumoniae; [5]): 1.03 µg/mL (≈ 1.5 µM)
4 | Cc1nnc(SCC(=O)Nc2ncc(CC(=O)NC3C(=O)N4C(C(=O)O)=C(COc5cc(Cl)ccc5Oc5ccc(Cl)cc5Cl)CSC34)s2)s1 (centres unmarked) [Compound 47] | >32 | >32 | >32 | >32 | >32000 | 63 (≈ 0.0774 µM) | 8000 (≈ 9.83 µM) | >32000 | >32 | >32 | >32 | 8 (≈ 9.83 µM) | 2 (≈ 2.46 µM) | 0.25 (≈ 0.307 µM) | MIC (Staphylococcus aureus; S. aureus ATCC 33591): 125 ng/mL (≈ 0.154 µM)
5 | O=C(Cc1cccs1)NC1C(=O)N2C(C(=O)O)=C(CC=COc3cc(Cl)ccc3Oc3ccc(Cl)cc3Cl)CSC12 (centres unmarked) [Compound 24, 3-(1-(2-(2,4-Dichlorophenoxy)-5-chlorophenoxy)-3-propenyl)-7-(2-thienylacetamido)-3-cephem-4-carboxylic acid] | 4.14 (≈ 6.35 µM) | 8.28 (≈ 12.7 µM) | 2.07 (≈ 3.17 µM) | 4.14 (≈ 6.35 µM) | 65 (≈ 0.0997 µM) | 65 (≈ 0.0997 µM) | 0.01 (≈ 1.53e-05 µM) | 32 (≈ 0.0491 µM) | >16.6 | >16.6 | 2.07 (≈ 3.17 µM) | 2.07 (≈ 3.17 µM) | 0.26 (≈ 0.399 µM) | 0.016 (≈ 0.0245 µM) | 
6 | O=C(COc1ccc(O)cc1)NC1C(=O)N2C(C(=O)O)=C(COc3cc(Cl)ccc3Oc3ccc(Cl)cc3Cl)CS[C@H]12 (some centres unmarked) [Compound 40, 3-(2-(2,4-dichlorophenoxy)-5-chlorophenoxy)methyl-7-[2-(4-hydroxyphenoxy)acetamido]-3-cephem-4-carboxylic acid] |  |  |  |  |  |  |  |  |  |  |  |  |  |  | MIC (E. faecalis; Enterococcus faecalis, ATCC49757, E. faecalis ATCC 49757, read-out: MIC): 16 µg/mL (≈ 24.5 µM); MIC (E. faecalis; Enterococcus faecalis, ATCC700802, E. faecalis ATCC 700802, read-out: MIC): 16 µg/mL (≈ 24.5 µM); MIC (E. cloacae; Enterobacter cloacae, ATCC23355, E. cloacae ATCC 23355, read-out: MIC): 16 µg/mL (≈ 24.5 µM); MIC (E. coli N; [1]): 0.5 µg/mL (≈ 0.767 µM); MIC (E. coli/TEM-1; Escherichia coli): 0.063 µg/mL (≈ 0.0966 µM); MIC (E. aerogenes; Klebsiella aerogenes, ATCC35028, E. aerogenes ATCC 35028, read-out: MIC): 32 µg/mL (≈ 49.1 µM); MIC (Staphylococcus aureus; Staphylococcus aureus, ATCC11632, S. aureus ATCC 11632, read-out: MIC): 16000 ng/mL (≈ 24.5 µM); MIC (Staphylococcus aureus; Staphylococcus aureus, ATCC33591, S. aureus ATCC 33591, read-out: MIC): 125 ng/mL (≈ 0.192 µM); MIC (Staphylococcus aureus; Staphylococcus aureus, ATCC33594, S. aureus ATCC 33594, read-out: MIC): 63 ng/mL (≈ 0.0966 µM); MIC (Staphylococcus aureus; [2]): 4000 ng/mL (≈ 6.14 µM); MIC (Staphylococcus aureus; [3]): 32000 ng/mL (≈ 49.1 µM); MIC (P. aeruginosa; [4]): > 32 µg/mL; MIC (P. aeruginosa; Pseudomonas aeruginosa, ATCC29872, P. aeruginosa ATCC 29872, read-out: MIC): > 32 µg/mL; MIC (K. pneumoniae; Klebsiella pneumoniae, ATCC51503, K. pneumoniae ATCC 51503, read-out: MIC): 16 µg/mL (≈ 24.5 µM); MIC (K. pneumoniae; [5]): 2 µg/mL (≈ 3.07 µM)
7 | C[C@@H](O)[C@H]1C(=O)N2C(C(=O)O)=C(SCCN=CN)C[C@H]12 [Imipenem, reference compound] |  |  |  |  |  |  |  |  |  |  |  |  |  |  | MIC range (E. cloacae; E. cloacae (1)): 0.0078 µg/mL (≈ 0.0261 µM); MIC (E. cloacae; Enterobacter cloacae, E. cloacae (1), read-out: GM* MIC (geometric mean)): 0.0078 µg/mL (≈ 0.0261 µM); MIC range (E. aerogenes; E. aerogenes (5)): 0.5 to 1 µg/mL; MIC (E. aerogenes; Klebsiella aerogenes, E. aerogenes (5), read-out: GM* MIC (geometric mean)): 0.66 µg/mL (≈ 2.2 µM); MIC range (K. pneumoniae; K. pneumoniae (5)): 0.063 to 8 µg/mL; MIC (K. pneumoniae; Klebsiella pneumoniae, K. pneumoniae (5), read-out: GM* MIC (geometric mean)): 0.46 µg/mL (≈ 1.54 µM)
